Experimental findings from US20050282840A1, “Methods of modulating neurotrophin-mediated activity” (PainCeptor Pharma Corporation, priority 2004, published 2005) are described below.

Assay [1] has as its target T1, p75^NTR receptors (PC12 cells) (Rattus norvegicus, UniProt P07174).
T1 construct: endogenous in cells; host or cells: PC12 cells
T1 sequence (P07174 30-425): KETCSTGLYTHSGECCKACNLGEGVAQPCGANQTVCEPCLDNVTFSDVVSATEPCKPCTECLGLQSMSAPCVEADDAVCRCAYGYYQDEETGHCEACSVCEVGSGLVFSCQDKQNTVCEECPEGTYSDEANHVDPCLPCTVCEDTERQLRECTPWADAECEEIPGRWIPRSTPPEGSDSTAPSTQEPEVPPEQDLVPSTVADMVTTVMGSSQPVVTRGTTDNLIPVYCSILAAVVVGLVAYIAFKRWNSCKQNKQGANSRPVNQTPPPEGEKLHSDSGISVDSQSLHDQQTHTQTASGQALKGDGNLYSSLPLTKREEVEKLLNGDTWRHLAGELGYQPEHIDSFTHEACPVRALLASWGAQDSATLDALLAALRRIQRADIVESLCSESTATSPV
T1 sequence (P23560 129-247 partner): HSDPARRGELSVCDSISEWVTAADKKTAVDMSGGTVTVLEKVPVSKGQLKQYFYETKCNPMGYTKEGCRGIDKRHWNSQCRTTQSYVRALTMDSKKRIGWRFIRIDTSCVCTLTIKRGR
Kind of assay: Basic screening assay: binding of 125I-BDNF to PC12 cells. Conditions: read-out: BDNF Activity % Maximal Binding. The method, then: (§1) The compounds were screened for effects on binding of ^125I-BDNF or ^125I-NGF to PC12 cells (p75^NTR receptors), and those that inhibited binding were further tested to determine the EC50 for this inhibition.
(§2) PC12 cells were cultured and prepared for binding assays as described in Example 1.
(§3) Lypophilized Peprotech human recombinant BDNF (Cedarlane Laboratories, Toronto, Canada, cat. # PE 450-02-10) was reconstituted under sterile conditions to 3.5 μM in sterile HKR/1%BSA, and either used immediately or stored in aliquots of 20 μl at −80° C. Immediately prior to use, a 15 nM (30×) solution of ^125I-BDNF or ^125I-NGF was prepared in HKR buffer, and was used at 0.5 nM final concentration.
(§4) Test Compounds were dissolved to 10 mM in DMSO, and those that were not initially soluble were warmed to 40-50° C. and vortexed. Those compounds that were still not in solution were reported as such. Compounds were then stored in this form at −20° C. until use. Immediately before experiments, 100 mM compounds were diluted to 10 mM in DMSO (1:10), followed by a further dilution to 1 mM (1:10) with distilled water, and a further dilution to 500 μM (1:1) with HKR.
(§5) Assays to determine maximum binding (Bmax), non-specific binding (NSB), and binding in the presence of each test compound (e.g., x, y) were performed at least in duplicate. In a total volume of 300 μL, 4×10^6 PC12 cells were incubated, rotating for 2 h at 4° C. with the following:
(§6) At the conclusion of the binding reaction, 100 μL aliquots of the reaction mixtures were carefully layered over 200 μL of a 10% glycerol solution in a 0.4 mL tube, and subjected to centrifugation in a microcentrifuge for 2 minutes at half maximum speed. The cell pellets containing the bound ^125I-BDNF or ^125I-NGF were then measured using a gamma counter. The mean values of the replicates were then calculated to determine the value for maximum binding (Bmax) and nonspecific binding (NSB), and binding in the presence of test compound at 50 μM (Bx). Specific binding (SB) was measured by subtracting the NSB from the Bmax.

Assay [2] concerns p75^NTR receptors (PC12 cells). Kind of assay: Basic screening assay: binding of 125I-NGF to PC12 cells. Conditions: test compound 50 μM, 0.5 nM 125I-NGF, PC12 cells, 2 h at 4° C., specific binding as percent of control. The method, then:
as §1, §2
Lyophilized Serotec mouse 2.5S NGF (Cedarlane Laboratories, Toronto, Canada, cat. # PMP 04Z) was reconstituted under sterile conditions to 1 mg/mL (38 μM) in sterile 0.2% acetic acid, and 100 μL or 50 μL aliquots were stored frozen at −80° C.
as §3, §4, §5
as §6, with “Bmax. Specific binding in the presence of the test compound (SBx) was determined by subtracting the NSB from the Bx for each test compound; and each SBx was divided by SB and multiplied by 100 to give the specific binding in the presence of the compound as a percent of control specific binding.” for “Bmax.”

Setting [3] is: Table 4, test compound 50 μM, 0.5 nM 125I-BDNF, PC12 cells, 2 h at 4° C., specific binding as percent of control.
The mark [4] stands for this setting: Table 1, test compound 50 μM, 0.5 nM 125I-BDNF, PC12 cells, 2 h at 4° C., specific binding as percent of control.

Where two headings read alike, the source gives them in different places.

Consider `COc1ccc(-c2ccc(C=C3C(=O)NC(=S)NC3=O)o2)cc1[N+](=O)[O-]` [Compound 8, 5-[5-(4-Methoxy-3-nitrophenyl)furan-2-ylmethylene]-2-thioxo-dihydro-pyrimidine-4,6-dione], for which the activity at 50 µM in assay [1] lay within 0 to 10%. Moreover, the “NGF Activity % Maximal Binding” value in assay [2] (Table 1) was “* (50 < *)”.
`COCCN1C(=O)C(=Cc2ccc(-c3ccc([N+](=O)[O-])cc3)o2)SC1=S` [Compound 120, 3-(2-Methoxy-ethyl)-5-[5-(4-nitrophenyl)furan-2-ylmethylene]-2-thioxo-thiazolidin-4-one]: the activity at 50 µM in assay [1] (setting [3]) was over 50%. The “NGF Activity % Maximal Binding” value in assay [2] (Table 4) is given as “* (50 < *)”.
The like results for `CCOC(=O)CN1C(=O)S/C(=C\c2ccc(-c3ccc([N+](=O)[O-])cc3)o2)C1=O` [Compound 117, {5-[5-(4-Nitrophenyl)furan-2-ylmethylene]-2,4-dioxo-thiazolidin-3-yl}-acetic acid ethyl ester] were, in that order, over 50% and “* (50 < *)”.
Take `O=C1C(=Cc2ccc(-c3ccc([N+](=O)[O-])cc3)o2)SC(=S)N1c1ccc(O)cc1` [Compound 142, 3-(4-Hydroxyphenyl)-5-[5-(4-nitrophenyl)furan-2-ylmethylene]-2-thioxo-thiazolidin-4-one]: the activity at 50 µM in assay [1] (setting [3]) is over 50%. The “NGF Activity % Maximal Binding” value in assay [2] (Table 4) is recorded as “* (50 < *)”.
The corresponding values for `CCOC(=O)CN1C(=O)S/C(=C\c2ccc(-c3ccc(Cl)c(C(=O)O)c3)o2)C1=O` [Compound 115, 2-Chloro-5-[5-(3-ethoxycarbonylmethyl-2,4-dioxo-thiazolidin-5-ylidenemethyl)furan-2-yl]benzoic acid] are over 50% and “* (50 < *)”.
Regarding `CCOC(=O)CN1C(=O)S/C(=C/c2ccc(-c3ccc(C(=O)O)c(Cl)c3)o2)C1=O` [Compound 24, 2-Chloro-4-[5-(3-ethoxycarbonylmethyl-2,4-dioxo-thiazolidin-5-ylidenemethyl)furan-2-yl]benzoic acid], in assay [1] (setting [4]), the activity at 50 µM fell in the range of 0 to 10%. Besides, in assay [2] (Table 1), the “NGF Activity % Maximal Binding” value is listed as “* (50 < *)”.
As for `CCOC(=O)CN1C(=O)S/C(=C\c2ccc(-c3ccc([N+](=O)[O-])cc3C)o2)C1=O` [Compound 61, {5-[5-(2-Methyl-4-nitrophenyl)furan-2-ylmethylene]-2,4-dioxo-thiazolidin-3-yl}-acetic acid ethyl ester], the activity at 50 µM in assay [1] (setting [4]) was in the range of 40 to 50%. The “NGF Activity % Maximal Binding” value in assay [2] (Table 1) is given as “* (50 < *)”.
The like results for `COCCN1C(=O)C(=Cc2ccc(-c3cccc([N+](=O)[O-])c3)o2)SC1=S` [Compound 34, 3-(2-Methoxy-ethyl)-5-[5-(3-nitrophenyl)furan-2-ylmethylene]-2-thioxo-thiazolidin-4-one] were, in that order, 10 to 20% and “* (50 < *)”.
With `NS(=O)(=O)c1ccc(-c2ccc(C=C3C(=O)NC(=S)NC3=O)o2)cc1` [Compound 105, 4-[5-(4,6-Dioxo-2-thioxo-tetrahydro-pyrimidin-5-ylidenemethyl)furan-2-yl]benzenesulfonamide], the activity at 50 µM in assay [1] was over 50%. Besides, in assay [2] (Table 4), the “NGF Activity % Maximal Binding” value is listed as “* (50 < *)”.
On to `COC(=O)c1cccc(-c2ccc(C=C3C(=O)NC(=S)NC3=O)o2)c1` [Compound 107, 3-[5-(4,6-Dioxo-2-thioxo-tetrahydro-pyrimidin-5-ylidenemethyl)furan-2-yl]benzoic acid methyl ester], for which the activity at 50 µM in assay [1] was over 50%. The “NGF Activity % Maximal Binding” value in assay [2] (Table 4) was “* (50 < *)”.
As for `CCOC(=O)CN1C(=O)S/C(=C/c2ccc(-c3cc(C(=O)O)ccc3C)o2)C1=O` [Compound 21, 3-[5-(3-Ethoxycarbonylmethyl-2,4-dioxo-thiazolidin-5-ylidenemethyl)furan-2-yl]-4-methylbenzoic acid], the activity at 50 µM in assay [1] (setting [4]) was 0 to 10%. Also, in assay [2] (Table 1), the “NGF Activity % Maximal Binding” value is given as “* (50 < *)”.
The like results for `O=C1NC(=S)N/C1=C/c1ccc(-c2ccc([N+](=O)[O-])cc2Cl)o1` [Compound 47, 5-[5-(2-Chloro-4-nitrophenyl)furan-2-ylmethylene]-2-thioxo-imidazolidin-4-one] were, in that order, 30 to 40% and “* (50 < *)”.
With `Cc1cccc(N2NC(=O)C(=Cc3ccc(-c4cccc([N+](=O)[O-])c4)o3)C2=O)c1` [Compound 140, 4-[5-(3-Nitrophenyl)furan-2-ylmethylene]-1-m-tolyl-pyrazolidine-3,5-dione], the activity at 50 µM in assay [1] (setting [3]) is over 50%. In addition, in assay [2] (Table 4), the “NGF Activity % Maximal Binding” value is “* (50 < *)”.
In the case of `Cc1cc([N+](=O)[O-])ccc1-c1ccc(/C=C2/C(=O)NC(=O)N(C)C2=O)o1` [Compound 53, 1-Methyl-5-[5-(2-methyl-4-nitrophenyl)furan-2-ylmethylene]-pyrimidine-2,4,6-trione], in assay [1], the activity at 50 µM was 30 to 40%. In addition, the “NGF Activity % Maximal Binding” value in assay [2] (Table 1) was “* (50 < *)”.
Take `COc1ccc(CN2C(=O)/C(=C\c3ccc(-c4ccc(S(N)(=O)=O)cc4)o3)SC2=S)cc1` [Compound 37, 4-{5-[3-(4-Methoxybenzyl)-4-oxo-2-thioxo-thiazolidin-5-ylidenemethyl]furan-2-yl}benzenesulfonamide]: the activity at 50 µM in assay [1] (setting [4]) lay in the range of 20 to 30%. For the same compound, the “NGF Activity % Maximal Binding” value in assay [2] (Table 1) is “* (50 < *)”.
The like results for `O=C1NC(=S)S/C1=C/c1ccc(-c2ccc([N+](=O)[O-])cc2Cl)o1` [Compound 5, 5-[5-(2-Chloro-4-nitrophenyl)furan-2-ylmethylene]-2-thioxo-thiazolidin-4-one] were, in that order, 0 to 10% and “* (50 < *)”.
As for `CCN1C(=O)S/C(=C/c2ccc(-c3ccc(C(=O)O)cc3)o2)C1=O` [Compound 73, 4-[5-(3-Ethyl-2,4-dioxo-thiazolidin-5-ylidenemethyl)furan-2-yl]benzoic acid], the activity at 50 µM in assay [1] (Table 2, test compound 50 μM, 0.5 nM 125I-BDNF, PC12 cells, 2 h at 4° C., specific binding as percent of control) was 0 to 10%. Moreover, the “NGF Activity % Maximal Binding” value in assay [2] (Table 2) was “X (40 < X < 50)”.
`COc1cc([N+](=O)[O-])ccc1-c1ccc(/C=C2/NC(=O)N(Cc3ccccc3F)C2=O)o1` [Compound 133, 3-(2-Fluorobenzyl)-5-[5-(2-methoxy-4-nitrophenyl)furan-2-ylmethylene]-imidazolidine-2,4-dione]: in assay [1] (setting [3]), the activity at 50 µM was over 50%. In addition, the “NGF Activity % Maximal Binding” value in assay [2] (Table 4) is on record as “* (50 < *)”.
